# Assay: gradient 5% acetonitrile 3 min, to 50% in 2 min, to 85% in 15 min, held 3 min, 100 µL/min
# Settings: column: Zorbax Extend-C18 2.1 x 50 mm; eluents: water / acetonitrile, 0.1% formic acid
# Method in brief: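 Values are retention times taken from adduct peaks that software picked and an analyst inspected. The pure standards were run as mixtures of ~100 molecules on HPLC linked to a quadrupole time-of-flight mass spectrometer, in positive and negative ionization mode. A Zorbax Extend-C18 column (2.1 × 50 mm, 1.8 μm) was used at 100 μL/min with water and acetonitrile, each including 0.1% formic acid.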
row,SMILES,RP-LC retention time [s]
1,O=C(Cn1ncc2c(N3CCN(c4ccccn4)CC3)ncnc21)Nc1ccccc1Cl,564
2,Cc1cc(NC(=O)NCCn2nnc3cc(C(=O)N4CCCC4)ccc32)ccc1Br,740
3,Cc1nc(-c2csc(S(=O)(=O)N3CCC(C(=O)Nc4ccc(F)cc4)CC3)c2)no1,916
4,Nc1c(C(=O)NCc2ccc3c(c2)OCO3)nsc1C(=O)N1CCN(c2ccccn2)CC1,663
5,COc1cccc(CNC2=NCCNC23CCN(S(=O)(=O)c2ccc(C)cc2)CC3)c1,717
6,COC(=O)c1[nH]c(C)c(C(=O)C(C)N(CC(C)C)C(=O)c2ccccc2Cl)c1C (stereo not given),932
7,CC(C)C(=O)NCc1csc(C2CCCN(C(=O)c3cc(F)cc(F)c3)C2)n1 (stereo not given),757
8,COc1cc(OC)c(NC(=O)COc2nc(C)nc3ccccc23)cc1Cl,771
9,Cc1ccc(CNC(=O)c2cc3c(s2)CCN(C(=O)c2ccc(F)cc2)C3)o1,847
10,CCN(CC)S(=O)(=O)c1cc(-c2nc(C(C)(C)C)cs2)cs1,1350
11,Cn1c(C(=O)NCc2ccccc2)cc2ccncc21,604
12,COc1ccc(C(=O)N2CCc3ccc(C(=O)O)cc32)cc1,741
13,O=C(NCc1cccs1)C1CCN(c2nc3ccc(Cl)cc3[nH]2)CC1,644
14,CCC(=O)N1CCCN(C2=NS(=O)(=O)C(c3ccc(F)cc3)=C2C)CC1,698
15,C[C@@]1(O)CCN(Cc2cccc(F)c2F)C[C@H]1N1CCCC1,563
16,CSc1cccc2sc(NC(=O)C3CCN(S(C)(=O)=O)CC3)nc12,779
17,CC(C)NC(=O)CN1C(=O)CC(c2ccc(Br)s2)=Nc2ccccc21,929
18,CCCNc1cc(-n2cccn2)ncn1,668
19,COc1cc(Cl)c(C)cc1NC(=O)C1CCCN(c2nc3ccccc3nc2OC)C1 (stereo not given),1380
20,CC1=C(c2ccc(C)c(C)c2)S(=O)(=O)N=C1N1CCCN(C(=O)NCCC(C)C)CC1,906
21,Cc1cccc(-n2c(=O)c3c(cc(C)n3C)n(CC(=O)Nc3ccc(C)cc3Cl)c2=O)c1,942
22,CCOc1ccc(OCC)c(N2C=C(C#N)S(=O)(=O)c3cc(F)ccc32)c1,1030
23,Cc1ccc(C)c(NC(=O)Cn2nc3cc(-c4ccccc4)nc(C)n3c2=O)c1,961

row,SMILES,RP-LC retention time [s]
1,CC1(CNC(=O)Cc2c[nH]c3ccccc23)CCOCC1,668
2,CCOc1cccc(-c2noc(-c3nnn4c3COC(c3ccc(C)cc3C)C4)n2)c1 (stereo not given),643
3,CCCCN(C)C(=O)c1ccc(-c2nnc3ccc(NC(=O)CC)cn23)cc1,740
4,O=C(CCc1csc2nc(C3CC3)cn12)NCc1ccc(OC(F)(F)F)cc1,612
5,Cc1nnc(C(C)C)n1C1CC2CCC(C1)N2CC[C@H](NC(=O)C1CCC(F)(F)CC1)c1ccccc1 (stereo not given in full),674
6,CC(O)(CCc1ccccc1)CNC(=O)C(=O)NCCC1=CCCCC1 (stereo not given),936
7,CCOC(=O)c1nc(NCCN(C)Cc2ccccc2)c2c(C)noc2n1,623
8,CCN(C(=O)C1CCCN(c2ncnc3c2nc2n3CCCCC2)C1)c1cc(C)ccc1C (stereo not given),905
9,Cc1ccc(-c2noc(-c3ccc4c(c3)OCCO4)n2)cc1,1250
10,Cc1nc(-c2cn(C)c3ncccc23)sc1C(=O)Nc1ccc(F)c(F)c1,940
11,O=C(Cc1cc(-c2ccc3c(c2)OCCO3)on1)N1CCN(c2ccccc2F)CC1,895
12,CCc1ccc(NC(=O)N2CCC(c3nc4cccnc4n3C)C2)cc1 (stereo not given),711
13,CCc1ccc(NC(=O)N2CCCC(C)(C(=O)NCc3ccccc3C)C2)cc1 (stereo not given),1040
14,Cc1ccc(NC(=O)N2CCC(N(C(=O)C3CC3)C3CCOCC3)CC2)c(C)c1,722
15,Cc1ccc(C)c(N2CCN(S(=O)(=O)c3ccc(-c4c(C)noc4C)cc3)CC2)c1,1250
16,O=C(c1cncc(Br)c1)N1CCc2cc(-c3csc(C4CC4)n3)ccc21,1070
17,CCC(C)NC(=O)C1CCC(=O)N(c2cc(OC)c(OC)c(OC)c2)C1c1ccc(OC)cc1 (stereo not given),693
18,O=C(NC1CCN(c2nnc3ccccn23)CC1)c1cc2c(s1)CCCC2,742
19,Cn1cc(NC(=O)Nc2ccc(F)c(F)c2)c2ccccc21,848
20,Cc1cc(NC(=O)c2cnc3c(c2)c(=O)n(C)c(=O)n3-c2ccccc2)ccc1F,942
21,Cc1ccccc1C1CCCN1C(=O)c1cnn2cc(Br)cnc12 (stereo not given),869
22,COc1ccc(CN2CCC(C3CCN(S(C)(=O)=O)CC3)C2)cc1OC (stereo not given),580

# Further lines, results first:
row,RP-LC retention time [s],SMILES
1,806,O=C(O)CSc1c(-c2ccccc2)c2cc(Cl)ccc2[nH]c1=O
2,922,CC1CCN(C(=O)C2CCN(S(C)(=O)=O)c3cc(Cl)ccc3O2)CC1 (stereo not given)
3,721,C=CCN1CC(c2nc3ccccc3n2CC(O)COc2cccc(C)c2)CC1=O (stereo not given)
4,1040,COc1cccc(S(=O)(=O)N2CCC3(CC2)C(OC)C(=O)N3c2cccc(F)c2)c1 (stereo not given)
5,746,CC(C)OCCCNC(=O)CN1C(=O)C2CCCCN2c2ccc(C(=O)N3CCCC3)cc21 (stereo not given)
6,734,Cc1csc(C(=O)NCC2CCN(C(=O)COc3ccccc3)CC2)c1
7,671,CCc1ccc(CN(CC(=O)N2CCNCC2)C(=O)c2sccc2C)cc1
8,573,CN1CCN(CCCNC(=O)C2c3ccccc3C(=O)N(C)C2c2cccs2)CC1 (stereo not given)
9,723,CC(C)Sc1cc(NCCCO)c([N+](=O)[O-])c2nonc12
10,752,O=C(c1ccccc1)N1C[C@@H]2C[C@H]1C[C@@H]2NS(=O)(=O)c1ccccc1
11,737,CC(C)NC(=O)c1cc(=O)[nH]c2c(Cl)cccc12
12,700,Cc1ccc(CNC(=O)CCNc2c(-c3cccc(F)c3)nc3cnccn23)o1
13,967,Cc1ccc(C(=O)Nc2ccccc2[N+](=O)[O-])cc1
14,822,O=C(Nc1ccc(F)c(F)c1)C1CCN(c2ccc(=O)n(-c3ccc(F)cc3)n2)CC1
15,1020,Cc1ccc(-c2cc(C(=O)NC3CCCCC3)c(C)[nH]2)cc1C
16,852,COc1ccc(OC)c(S(=O)(=O)N(C)CC2(C)CCOCC2)c1
17,1160,Cc1ccc(C)c(C(O)Cn2ccn3nc(-c4cccc(Br)c4)cc3c2=O)c1 (stereo not given)
18,730,NC(=O)Cn1c2ccccc2c2ncn(Cc3nc(-c4ccccc4)no3)c(=O)c21
19,732,Cc1cc(F)ccc1NC(=O)C1CCN(S(=O)(=O)c2cn(C(C)C)cn2)CC1
20,787,O=C(Nc1ccc2c(c1)OCO2)N1CCC(N2CCN(Cc3ccccc3)C2=O)CC1
21,907,CCOC(=O)c1cccc(N2C=C(C#N)S(=O)(=O)c3c(F)cccc32)c1
22,1030,Cc1ccccc1OCC(=O)Nc1ccc2c(c1)N(S(=O)(=O)c1ccccc1)CCC2
23,786,Cc1cc(C)n(-c2ccnc(N3CCC(C(=O)NC4CCCC4)CC3)n2)n1

row,RP-LC retention time [s],SMILES
1,763,Cc1csc(NC(=O)Cc2cc(-c3cccs3)on2)n1
2,542,Cc1cc(=O)n(CC(=O)Nc2ccc3c(c2)OCCO3)c(N)n1
3,746,CC(C)(C)NC(=O)c1ccc2c(c1)CCCN2S(C)(=O)=O
4,1180,CCn1cc(C2=CCN(S(=O)(=O)c3ccc(C)c(Cl)c3)CC2)c2cccnc21
5,805,O=C1NCCCCCCN(C(=O)Nc2ccccc2F)[C@H]2CCC[C@@H]12
6,685,O=C(NC1CCN(c2cc(-c3ccc(F)cc3)[nH]n2)C1)c1cc(F)ccc1Cl (stereo not given)
7,792,CCOC(=O)c1[nH]c(C)c(CCC(=O)N2CCC(C(=O)NC(C)c3ccccc3)CC2)c1C (stereo not given)
8,935,CCCCC(C)C(=O)NC1CCN(C2=NS(=O)(=O)C(c3ccc(C)cc3)=C2C)CC1 (stereo not given)
9,749,O=C(NCc1cccc(Cl)c1)c1cccn1-c1cccnc1
10,634,O=C(O)CNC(=O)C1CCCN(S(=O)(=O)c2ccc(F)cc2)C1 (stereo not given)
11,921,CN1C(=O)C2CCCCN2c2ccc(C(=O)NCCc3c[nH]c4ccc(Cl)cc34)cc21 (stereo not given)
12,1240,CCn1c(C(=O)Nc2ccc(C)cc2C)cc2sc(Cl)cc21
13,664,COc1ccccc1CC(=O)Nc1cnc(C)nc1
14,710,O=C(Nc1ccc(F)c(Cl)c1)N1CCC(OC2CCN(Cc3ccccc3)CC2)CC1
15,865,O=C(NC1CCCCCC1)c1cccc(CN2C(=O)C3CCCN3C(=O)c3ccccc32)c1 (stereo not given)
16,598,O=C(Nc1ccc(Cl)c(Cl)c1)N1CCN(Cc2ccsc2)CC1
17,764,Clc1cccc(Cc2nc(-c3ccc(-n4ccnc4)nc3)no2)c1
18,1190,CSc1ccc(-c2noc(Cc3nnc(-c4ccc(C)c(C)c4)o3)n2)cc1
19,767,Cc1cccc(N2CC(C(=O)NC3CCCC3)CC2=O)c1 (stereo not given)
20,885,O=C(C1=NN(Cc2ccc(F)cc2)c2ccccc2S1(=O)=O)N1CCCCC1
21,725,CC(C)CC(NC(=O)c1ccccc1)C(=O)Nc1nc2ccccc2[nH]1 (stereo not given)
22,941,Cc1ccccc1Nc1c(-c2ccccn2)nc2cnccn12
